In experiment [1] the target is T1, Langerin (Homo sapiens, UniProt Q9UJ71).
T1 construct: The extracellular domains of lectin receptors, TREMs and TLTs were cloned by the reverse-transcriptase polymerase chain reaction (RT-PCR); made in house; host or cells: 293-F (FreeStyle 293) cells
Description: Sugar competition EIA, Fc.Langerin binding to GLPS-F3. The conditions noted are these: sugar 1 mg/ml. The protocol: (§1) The interaction between GLPS-F3 and receptor.Fc was then tested. Unbiotinylated GLPS-F3 was immobilized at 100 ng/well as described above, and 100 μL receptor.Fc fusion protein (1 μg/ml in 2 mM MgCl2/2 mM CaCl2/1% BSA/TBST) was added into each well and incubated for 1 hour at room temperature. After washing with TBST, wells were incubated with peroxidase-conjugated goat anti-human IgG Ab (1:5000 dilution, Jackson ImmunoResearch Laboratories) in blocking buffer at room temperature for 30 min. Wells were incubated with 100 μL TMB substrate for 15 min after TBST washing and read at 450 nm in a Fusion plate reader (Perkin Elmer). The results were normalized with respect to Fc.Dectin-1 binding (Dectin-1 is a known lectin receptor that binds to β-1,3-glucan which is the backbone found in GLPS-F3). FIG. 6B depicts in graphical form the affinity of each receptor for GLPS-F3 relative to Dectin-1. […] There was also weaker but positive GLPS-F3 binding ability (25-50% binding intensity compared to Fc.dectin-1) found in Fc.NKG2D, Fc.MINCLE, Fc.mKCR, DCAL1.Fc, DEC205.Fc, Endo180.Fc and NKp30(NCR3).Fc.
(§2) To understand the interaction of GLPS-F3 with specific innate immunity receptors, the polysaccharides mannan and β-glucan and the monosaccharides D-mannose (Man), D-glucose (Glc), N-acetyl-glucosamine (GlcNAc), D-galactose (Gal), N-acetyl-galactosamine (GalNAc), L-fucose (Fuc) and sialic acid, were used in a competition assay. […] The assays were carried out as in Example 9, with the addition of 1 mg/ml of each polysaccharide or monosaccharide.

The target of experiment [2] is T2, MMR.Fc (Homo sapiens, UniProt P22897).
T2 construct: The extracellular domains of lectin receptors, TREMs and TLTs were cloned by the reverse-transcriptase polymerase chain reaction (RT-PCR); made in house; host or cells: 293-F (FreeStyle 293) cells
T2 sequence (P22897 19-1389 limits assumed): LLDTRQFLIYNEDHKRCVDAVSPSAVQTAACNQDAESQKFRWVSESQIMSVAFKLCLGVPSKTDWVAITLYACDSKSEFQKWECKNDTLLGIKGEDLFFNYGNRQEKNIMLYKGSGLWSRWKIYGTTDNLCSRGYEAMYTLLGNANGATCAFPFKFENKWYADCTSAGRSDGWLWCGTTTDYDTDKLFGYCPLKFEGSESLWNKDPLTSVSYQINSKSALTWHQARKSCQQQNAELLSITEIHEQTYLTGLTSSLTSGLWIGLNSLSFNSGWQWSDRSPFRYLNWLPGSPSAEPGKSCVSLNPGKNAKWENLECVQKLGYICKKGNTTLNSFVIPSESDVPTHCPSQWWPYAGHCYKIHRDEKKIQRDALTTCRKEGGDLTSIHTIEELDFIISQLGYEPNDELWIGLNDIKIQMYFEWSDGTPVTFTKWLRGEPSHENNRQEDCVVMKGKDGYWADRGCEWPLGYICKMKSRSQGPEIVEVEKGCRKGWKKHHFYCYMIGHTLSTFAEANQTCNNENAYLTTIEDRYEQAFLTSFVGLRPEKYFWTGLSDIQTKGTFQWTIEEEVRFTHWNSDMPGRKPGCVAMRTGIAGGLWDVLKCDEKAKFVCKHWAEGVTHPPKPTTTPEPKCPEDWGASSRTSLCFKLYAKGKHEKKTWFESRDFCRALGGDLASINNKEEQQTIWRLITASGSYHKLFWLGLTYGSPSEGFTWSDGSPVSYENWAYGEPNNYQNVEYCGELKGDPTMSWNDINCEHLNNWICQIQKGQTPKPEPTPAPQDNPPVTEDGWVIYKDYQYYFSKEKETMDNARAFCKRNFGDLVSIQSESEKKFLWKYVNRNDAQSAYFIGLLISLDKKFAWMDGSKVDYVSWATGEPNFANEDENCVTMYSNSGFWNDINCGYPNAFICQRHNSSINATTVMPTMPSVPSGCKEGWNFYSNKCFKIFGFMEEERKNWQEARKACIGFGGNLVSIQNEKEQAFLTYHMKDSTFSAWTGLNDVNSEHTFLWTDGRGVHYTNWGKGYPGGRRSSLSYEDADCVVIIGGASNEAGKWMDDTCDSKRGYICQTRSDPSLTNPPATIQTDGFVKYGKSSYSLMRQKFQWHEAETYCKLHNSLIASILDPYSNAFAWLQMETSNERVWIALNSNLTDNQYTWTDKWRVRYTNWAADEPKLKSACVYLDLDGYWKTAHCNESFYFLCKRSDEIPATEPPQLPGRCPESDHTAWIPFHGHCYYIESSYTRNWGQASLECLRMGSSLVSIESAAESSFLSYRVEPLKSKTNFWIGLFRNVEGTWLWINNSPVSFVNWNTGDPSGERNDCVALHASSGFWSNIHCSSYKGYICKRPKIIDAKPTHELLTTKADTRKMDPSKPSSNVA
Description: Sugar competition EIA, MMR.Fc binding to GLPS-F3. The conditions noted are these: sugar 1 mg/ml. The protocol:
as §1, §2

Experiment [3] concerns the target T3, DVLR1/CLEC5A (Homo sapiens, UniProt Q9NY25).
T3 construct: expressed in transfected cells; host or cells: 293T cells
T3 sequence (Q9NY25 1-187 isoform Q9NY25-2): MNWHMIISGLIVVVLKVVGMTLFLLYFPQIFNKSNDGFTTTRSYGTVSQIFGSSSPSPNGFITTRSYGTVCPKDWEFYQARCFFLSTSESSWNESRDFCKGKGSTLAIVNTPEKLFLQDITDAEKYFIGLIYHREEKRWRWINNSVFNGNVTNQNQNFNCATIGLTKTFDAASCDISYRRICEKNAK
In words: Sugar competition, biotinylated DV binding to DVLR1/CLEC5A-transfected 293T cells. The conditions noted are these: flow cytometry. It is filed as cell-based. The protocol: In FIG. 16b, complexes of DV (5×10^6 PFU) with receptor.Fc (5 μg) were immunoprecipitated and detected on westerns with mAb to DV envelope (E) protein. […] FIGS. 16d and 16e show sugar competition assays wherein both DC-SIGN (CLEC4L) and DVLR1/CLEC5A increase DV binding to human 293T cells (FIG. 16d), while addition of sugars inhibits biotinylated DV binding to DC-SIGN- (left panel) or DLVR1/CLEC5A- (right panel) transfected 293T cells in a dose-dependent manner as determined by flow cytometry (FIG. 16e). According to FIG. 16e, MFI represents mean fluorescence intensity. Units (U) for monosaccharide (mannose and fucose) and polysaccharide (mannan) are mM and mg/ml, respectively. […] Data are expressed as the mean±s.d. of three independent experiments. Two-tailed, Student's t-tests were performed.
There are two conserved N-linked glycosylation sites at Asn-67 and Asn-153 of E protein (Pokidysheva, E. et al., Cell 124:485-93 (2006)), and the attached glycans (with terminal fucose and mannose) have been implicated in cellular attachment and viral entry (Modis, Y. et al., J. Virol. 79:1223-1231 (2005)). To investigate the participation of glycans in the association of DVLR1/CLEC5A with DV, virions were incubated with fucose, mannose, or mannan; where the last two sugars are the ligands for DC-SIGN (Mitchell et al., J. Biol. Chem. 276: 28939-28945 ([…])).
On the technique in general: A flow cytometer gives signals particle by particle.

The record followed here is patent US8460669B2, “Compositions and methods for identifying response targets and treating flavivirus infection responses” (Academia Sinica, priority 2005, dated 2013).

T1 sequence (Q9UJ71 65-328 limits assumed): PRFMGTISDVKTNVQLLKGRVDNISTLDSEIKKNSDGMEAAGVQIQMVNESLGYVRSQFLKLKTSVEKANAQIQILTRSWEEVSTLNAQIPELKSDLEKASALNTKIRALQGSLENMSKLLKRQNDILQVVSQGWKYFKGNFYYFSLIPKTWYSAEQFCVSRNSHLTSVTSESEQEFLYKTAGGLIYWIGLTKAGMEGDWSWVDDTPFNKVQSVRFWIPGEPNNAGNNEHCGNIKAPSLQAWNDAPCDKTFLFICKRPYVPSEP

Turning to `C[C@H](O)[C@@H](O)[C@@H](O)[C@H](O)C=O` [Fuc, L-fucose], in experiment [1], the “Percentage of binding of Langerin Fc fusion to GLPS-F3 relative to binding in absence of sugar competitor” value is reported as 76 ± 1.9%. Besides, in experiment [2], the “Percentage of binding of MMR.Fc to GLPS-F3 relative to binding in absence of sugar competitor” value is recorded as 12 ± 2.0%; the “inhibition of interaction between GLPS-F3 and MMR.Fc” value is given as 88%. Besides, the “inhibition of binding of DVLR1/CLEC5A to DV” value in experiment [3] is “significantly reduced”.
mannan: in experiment [1], the “Percentage of binding of Langerin Fc fusion to GLPS-F3 relative to binding in absence of sugar competitor” value amounted to 5 ± 0.9%; the “inhibition of interaction between Fc.Langerin and GLPS-F3” value is recorded as 95%. In addition, in experiment [2], the “Percentage of binding of MMR.Fc to GLPS-F3 relative to binding in absence of sugar competitor” value is on record as 2 ± 0.5%; the “inhibition of interaction between GLPS-F3 and MMR.Fc” value was 98%. In experiment [3], the “inhibition of binding of DVLR1/CLEC5A to DV” value was “to a lesser extent”.
With β-1,3-glucan [b-glucan], in experiment [1], the “Percentage of binding of Langerin Fc fusion to GLPS-F3 relative to binding in absence of sugar competitor” value worked out at 77 ± 3.2%. For the same compound, the “Percentage of binding of MMR.Fc to GLPS-F3 relative to binding in absence of sugar competitor” value in experiment [2] is on record as 100 ± 4.2%.
